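Method: 48-hour compound exposure of cells in 96-well plates, five concentrations, linear interpolation of endpoints. GI50 = concentration required for 50% inhibition of growth. TGI: concentration producing complete growth inhibition.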
What was measured:
Assay in all cases: DTP human tumour cell line panel, 48 h
UO-31 renal = test system: UO-31 renal
HOP-62 NSCLC = test system: HOP-62 NSCLC
ACHN renal = test system: ACHN renal
NCI/ADR-RES ovarian = test system: NCI/ADR-RES ovarian
MDA-MB-231 breast = test system: MDA-MB-231 breast
PC-3 prostate = test system: PC-3 prostate
RXF 393 renal = test system: RXF 393 renal
U251 CNS = test system: U251 CNS
MOLT-4 leukemia = test system: MOLT-4 leukemia
SK-MEL-2 melanoma = test system: SK-MEL-2 melanoma
A549 NSCLC = test system: A549 NSCLC
NCI-H23 lung = test system: NCI-H23 lung
NCI-H226 lung = test system: NCI-H226 lung
COLO 205 colon = test system: COLO 205 colon
TK-10 renal = test system: TK-10 renal
SF-295 CNS = test system: SF-295 CNS
RPMI-8226 leukemia = test system: RPMI-8226 leukemia
HS 578T breast = test system: HS 578T breast
MALME-3M melanoma = test system: MALME-3M melanoma
SNB-19 CNS = test system: SNB-19 CNS
HCT-15 colon = test system: HCT-15 colon
HT29 colon = test system: HT29 colon
K-562 leukemia = test system: K-562 leukemia
LOX IMVI melanoma = test system: LOX IMVI melanoma
IGROV1 ovarian = test system: IGROV1 ovarian
HCC-2998 colon = test system: HCC-2998 colon
HL-60(TB) leukemia = test system: HL-60(TB) leukemia
NCI-H460 lung = test system: NCI-H460 lung
SF-539 CNS = test system: SF-539 CNS
OVCAR-4 ovarian = test system: OVCAR-4 ovarian
HOP-92 NSCLC = test system: HOP-92 NSCLC
T-47D breast = test system: T-47D breast
SR leukemia = test system: SR leukemia
SNB-75 CNS = test system: SNB-75 CNS
MDA-MB-435 = test system: MDA-MB-435
SN12C renal = test system: SN12C renal
UACC-257 melanoma = test system: UACC-257 melanoma
CCRF-CEM leukemia = test system: CCRF-CEM leukemia
786-0 renal = test system: 786-0 renal
OVCAR-8 ovarian = test system: OVCAR-8 ovarian
BT-549 breast = test system: BT-549 breast
UACC-62 melanoma = test system: UACC-62 melanoma
CAKI-1 renal = test system: CAKI-1 renal
SK-MEL-28 melanoma = test system: SK-MEL-28 melanoma
SK-OV-3 ovarian = test system: SK-OV-3 ovarian
A498 renal = test system: A498 renal
SK-MEL-5 melanoma = test system: SK-MEL-5 melanoma
OVCAR-5 ovarian = test system: OVCAR-5 ovarian
HCT-116 colon = test system: HCT-116 colon
M14 melanoma = test system: M14 melanoma
NCI-H522 lung = test system: NCI-H522 lung
SW-620 colon = test system: SW-620 colon
MCF7 breast = test system: MCF7 breast
EKVX NSCLC = test system: EKVX NSCLC
OVCAR-3 ovarian = test system: OVCAR-3 ovarian
KM12 colon = test system: KM12 colon
SF-268 CNS = test system: SF-268 CNS
DU-145 prostate = test system: DU-145 prostate

Structure (SMILES): CCCn1c(=S)sc2c1nc(C)n1c(Nc3ccccc3)nnc21
- GI50 (UO-31 renal): 5.05 µM
- TGI (UO-31 renal): > 100 µM
- GI50 (HOP-62 NSCLC): 7.15 µM
- TGI (HOP-62 NSCLC): 23.9 µM
- GI50 (ACHN renal): 5.05 µM
- TGI (ACHN renal): > 100 µM
- GI50 (NCI/ADR-RES ovarian): 3.53 µM
- TGI (NCI/ADR-RES ovarian): 41.9 µM
- GI50 (MDA-MB-231 breast): 9.71 µM
- TGI (MDA-MB-231 breast): 33 µM
- GI50 (PC-3 prostate): 4.04 µM
- TGI (PC-3 prostate): 34.5 µM
- GI50 (RXF 393 renal): 15.1 µM
- TGI (RXF 393 renal): > 100 µM
- GI50 (U251 CNS): 4.02 µM
- TGI (U251 CNS): > 100 µM
- GI50 (MOLT-4 leukemia): 3.02 µM
- TGI (MOLT-4 leukemia): 48.3 µM
- GI50 (SK-MEL-2 melanoma): 4.64 µM
- TGI (SK-MEL-2 melanoma): 53.1 µM
- GI50 (A549 NSCLC): 6.18 µM
- TGI (A549 NSCLC): > 100 µM
- GI50 (NCI-H23 lung): 2.77 µM
- TGI (NCI-H23 lung): 11.1 µM
- GI50 (NCI-H226 lung): 4.98 µM
- TGI (NCI-H226 lung): 23.6 µM
- GI50 (COLO 205 colon): 17 µM
- TGI (COLO 205 colon): 47.3 µM
- GI50 (TK-10 renal): 3.2 µM
- TGI (TK-10 renal): 84 µM
- GI50 (SF-295 CNS): 2.59 µM
- TGI (SF-295 CNS): 19.8 µM
- GI50 (RPMI-8226 leukemia): 4.22 µM
- TGI (RPMI-8226 leukemia): 39.3 µM
- GI50 (HS 578T breast): 3.55 µM
- TGI (HS 578T breast): 36 µM
- GI50 (MALME-3M melanoma): 2.94 µM
- TGI (MALME-3M melanoma): > 100 µM
- GI50 (SNB-19 CNS): 3.94 µM
- TGI (SNB-19 CNS): > 100 µM
- GI50 (HCT-15 colon): 5.09 µM
- TGI (HCT-15 colon): > 100 µM
- GI50 (HT29 colon): 13.1 µM
- TGI (HT29 colon): 38.3 µM
- GI50 (K-562 leukemia): 6.15 µM
- TGI (K-562 leukemia): 37.7 µM
- GI50 (LOX IMVI melanoma): 3.67 µM
- TGI (LOX IMVI melanoma): > 100 µM
- GI50 (IGROV1 ovarian): 25.8 µM
- TGI (IGROV1 ovarian): > 100 µM
- GI50 (HCC-2998 colon): 3.27 µM
- TGI (HCC-2998 colon): 12.2 µM
- GI50 (HL-60(TB) leukemia): 3.46 µM
- TGI (HL-60(TB) leukemia): > 100 µM
- GI50 (NCI-H460 lung): 3.5 µM
- TGI (NCI-H460 lung): 13.8 µM
- GI50 (SF-539 CNS): 7.45 µM
- TGI (SF-539 CNS): 30.3 µM
- GI50 (OVCAR-4 ovarian): 3.46 µM
- TGI (OVCAR-4 ovarian): > 100 µM
- GI50 (HOP-92 NSCLC): 2.31 µM
- TGI (HOP-92 NSCLC): 20.2 µM
- GI50 (T-47D breast): 1.63 µM
- TGI (T-47D breast): 8.25 µM
- GI50 (SR leukemia): 1.83 µM
- TGI (SR leukemia): 16 µM
- GI50 (SNB-75 CNS): 12.9 µM
- TGI (SNB-75 CNS): 71 µM
- GI50 (MDA-MB-435): 3.22 µM
- TGI (MDA-MB-435): 24.1 µM
- GI50 (SN12C renal): 4.63 µM
- TGI (SN12C renal): > 100 µM
- GI50 (UACC-257 melanoma): 3.36 µM
- TGI (UACC-257 melanoma): 36.1 µM
- GI50 (CCRF-CEM leukemia): 4.32 µM
- TGI (CCRF-CEM leukemia): > 100 µM
- GI50 (786-0 renal): 4.3 µM
- TGI (786-0 renal): 49.2 µM
- GI50 (OVCAR-8 ovarian): 4.92 µM
- TGI (OVCAR-8 ovarian): > 100 µM
- GI50 (BT-549 breast): 2.99 µM
- TGI (BT-549 breast): 12 µM
- GI50 (UACC-62 melanoma): 3.09 µM
- TGI (UACC-62 melanoma): 18.9 µM
- GI50 (CAKI-1 renal): 6.05 µM
- TGI (CAKI-1 renal): 62.4 µM
- GI50 (SK-MEL-28 melanoma): 5.71 µM
- TGI (SK-MEL-28 melanoma): 38.6 µM
- GI50 (SK-OV-3 ovarian): 16.8 µM
- TGI (SK-OV-3 ovarian): 89.1 µM
- GI50 (A498 renal): 2.52 µM
- TGI (A498 renal): 14.1 µM
- GI50 (SK-MEL-5 melanoma): 3.31 µM
- TGI (SK-MEL-5 melanoma): 11.2 µM
- GI50 (OVCAR-5 ovarian): 21 µM
- TGI (OVCAR-5 ovarian): > 100 µM
- GI50 (HCT-116 colon): 4.43 µM
- TGI (HCT-116 colon): 17.7 µM
- GI50 (M14 melanoma): 4.72 µM
- TGI (M14 melanoma): 44 µM
- GI50 (NCI-H522 lung): 3.57 µM
- TGI (NCI-H522 lung): 15.5 µM
- GI50 (SW-620 colon): 8.41 µM
- TGI (SW-620 colon): 22.3 µM
- GI50 (MCF7 breast): 6.31 µM
- TGI (MCF7 breast): 47.3 µM

Structure (SMILES): Cn1c2ccccc2c2ccc3c(c21)C(=O)c1ccccc1C3=O
- TGI (UO-31 renal): > 100 µM
- TGI (HOP-62 NSCLC): 45.5 µM
- TGI (ACHN renal): 69.2 µM
- TGI (NCI/ADR-RES ovarian): 45.4 µM
- TGI (MDA-MB-231 breast): 64.2 µM
- TGI (PC-3 prostate): 33.2 µM
- TGI (RXF 393 renal): 32 µM
- TGI (U251 CNS): 34.9 µM
- TGI (A549 NSCLC): > 100 µM
- TGI (EKVX NSCLC): > 100 µM
- TGI (NCI-H23 lung): 33.5 µM
- TGI (NCI-H226 lung): > 100 µM
- TGI (COLO 205 colon): 82 µM
- TGI (TK-10 renal): 39.1 µM
- TGI (OVCAR-3 ovarian): 26.8 µM
- TGI (SF-295 CNS): 42 µM
- TGI (RPMI-8226 leukemia): 36.1 µM
- TGI (HS 578T breast): 46.6 µM
- TGI (KM12 colon): > 100 µM
- TGI (MALME-3M melanoma): 24.5 µM
- TGI (SNB-19 CNS): > 100 µM
- TGI (HCT-15 colon): 50.2 µM
- TGI (HT29 colon): 39.5 µM
- TGI (K-562 leukemia): 32.2 µM
- TGI (LOX IMVI melanoma): 29.4 µM
- TGI (IGROV1 ovarian): 31.4 µM
- TGI (HCC-2998 colon): > 100 µM
- TGI (HL-60(TB) leukemia): 10.8 µM
- TGI (SF-268 CNS): 66.6 µM
- TGI (SF-539 CNS): 41.2 µM
- TGI (OVCAR-4 ovarian): 69.7 µM
- TGI (HOP-92 NSCLC): 54.2 µM
- TGI (DU-145 prostate): > 100 µM
- TGI (T-47D breast): 49.8 µM
- TGI (SR leukemia): 13.9 µM
- TGI (MDA-MB-435): 32.2 µM
- TGI (SN12C renal): 73.1 µM
- TGI (UACC-257 melanoma): 67.5 µM
- TGI (CCRF-CEM leukemia): 13.1 µM
- TGI (786-0 renal): 47.3 µM
- TGI (OVCAR-8 ovarian): 61.6 µM
- TGI (BT-549 breast): 50.9 µM
- TGI (UACC-62 melanoma): 38.3 µM
- TGI (CAKI-1 renal): 67 µM
- TGI (SK-MEL-28 melanoma): 29.4 µM
- TGI (SK-OV-3 ovarian): 61.9 µM
- TGI (SK-MEL-5 melanoma): 30.2 µM
- TGI (OVCAR-5 ovarian): > 100 µM
- TGI (HCT-116 colon): 40.6 µM
- TGI (M14 melanoma): 83 µM
- TGI (NCI-H522 lung): 29.6 µM
- TGI (SW-620 colon): > 100 µM

From PubChem BioAssay (NCI)
